Measured values from patent US9359358B2, “Cyclohexyl azetidine derivatives as JAK inhibitors” (Incyte Holdings Corporation, priority 2011, dated 2016).

Legend:
human JAK1 = molecular target: T1, human JAK1 (Homo sapiens, UniProt P23458); assay: In Vitro JAK Kinase Assay (HTRF, phosphorylation of a biotinylated peptide), JAK1; type: biochemical; conditions: Table 5; catalytic domain a.a. 837-1142, assay of Example A
T1 construct: human JAK1 (a.a. 837-1142); His tag (N); made in house; host or cells: insect cells (baculovirus)
Summary of the method: (§1)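 HTRF detection (SA-APC plus Eu-labeled anti-phosphotyrosine Py20, 40 min after EDTA stop) quantified biotinylated-peptide phosphorylation. Kinase reactions with human JAK1 or JAK2 catalytic domains lasted 1 h at room temperature.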

human JAK2 = molecular target: T2, human JAK2 (Homo sapiens, UniProt O60674); assay: In Vitro JAK Kinase Assay (HTRF, phosphorylation of a biotinylated peptide), JAK2; type: biochemical; conditions: Table 5; assay of Example A
T2 construct: JAK2 (a.a. 828-1132); His tag (N); made in house; host or cells: insect cells (baculovirus)
Summary of the method: as §1

T1 sequence (P23458 849-1154): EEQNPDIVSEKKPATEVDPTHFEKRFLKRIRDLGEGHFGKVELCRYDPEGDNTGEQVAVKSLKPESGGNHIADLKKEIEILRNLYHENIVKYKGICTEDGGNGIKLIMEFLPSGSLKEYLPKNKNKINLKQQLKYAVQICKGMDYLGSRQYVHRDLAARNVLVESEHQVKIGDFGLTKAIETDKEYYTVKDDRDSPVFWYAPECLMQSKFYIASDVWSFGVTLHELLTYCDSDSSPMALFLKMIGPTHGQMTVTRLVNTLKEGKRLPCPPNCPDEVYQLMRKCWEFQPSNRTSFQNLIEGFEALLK
T2 sequence (O60674 828-1132): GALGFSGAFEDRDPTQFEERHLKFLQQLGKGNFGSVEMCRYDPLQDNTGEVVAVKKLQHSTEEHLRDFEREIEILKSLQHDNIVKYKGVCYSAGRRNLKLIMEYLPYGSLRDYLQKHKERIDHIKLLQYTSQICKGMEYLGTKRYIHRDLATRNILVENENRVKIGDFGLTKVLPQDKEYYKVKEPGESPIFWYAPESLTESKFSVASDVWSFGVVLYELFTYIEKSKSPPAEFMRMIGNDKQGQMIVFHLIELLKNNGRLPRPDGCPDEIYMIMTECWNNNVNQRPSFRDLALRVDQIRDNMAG

Compound	IC50 (human JAK1) [nM]	JAK2/JAK1 IC50 ratio (human JAK2)
CN(C)C(=O)c1cc(O[C@H]2CC[C@@H](N3CC(CC#N)(n4cc(-c5ncnc6[nH]ccc56)cn4)C3)CC2)nc(C(F)(F)F)c1 [Example 81, 2-[(cis-4-{3-(cyanomethyl)-3-[4-(7H-pyrrolo[2,3-d]pyrimidin-4-yl)-1H-pyrazol-1-yl]azetidin-1-yl}cyclohexyl)oxy]-N,N-dimethyl-6-(trifluoromethyl)isonicotinamide bis(trifluoroacetate)]	< 10	≧10
CN(CCO)C(=O)c1cc(O[C@H]2CC[C@@H](N3CC(CC#N)(n4cc(-c5ncnc6[nH]ccc56)cn4)C3)CC2)nc(C(F)(F)F)c1 [Example 82, 2-[(cis-4-{3-(cyanomethyl)-3-[4-(7H-pyrrolo[2,3-d]pyrimidin-4-yl)-1H-pyrazol-1-yl]azetidin-1-yl}cyclohexyl)oxy]-N-(2-hydroxyethyl)-N-methyl-6-(trifluoromethyl)isonicotinamide bis(trifluoroacetate)]	< 10	≧10
CC(C)NC(=O)c1cc(O[C@H]2CC[C@@H](N3CC(CC#N)(n4cc(-c5ncnc6[nH]ccc56)cn4)C3)CC2)nc(C(F)(F)F)c1 [Example 83, 2-[(cis-4-{3-(cyanomethyl)-3-[4-(7H-pyrrolo[2,3-d]pyrimidin-4-yl)-1H-pyrazol-1-yl]azetidin-1-yl}cyclohexyl)oxy]-N-isopropyl-6-(trifluoromethyl)isonicotinamide bis(trifluoroacetate)]	< 10	≧10
C[C@@H](CO)NC(=O)c1cc(O[C@H]2CC[C@@H](N3CC(CC#N)(n4cc(-c5ncnc6[nH]ccc56)cn4)C3)CC2)nc(C(F)(F)F)c1 [Example 84, 2-[(cis-4-{3-(cyanomethyl)-3-[4-(7H-pyrrolo[2,3-d]pyrimidin-4-yl)-1H-pyrazol-1-yl]azetidin-1-yl}cyclohexyl)oxy]-N-[(1S)-2-hydroxy-1-methylethyl]-6-(trifluoromethyl)isonicotinamide bis(trifluoroacetate)]	< 10	≧10
C[C@H](CO)NC(=O)c1cc(O[C@H]2CC[C@@H](N3CC(CC#N)(n4cc(-c5ncnc6[nH]ccc56)cn4)C3)CC2)nc(C(F)(F)F)c1 [Example 85, 2-[(cis-4-{3-(cyanomethyl)-3-[4-(7H-pyrrolo[2,3-d]pyrimidin-4-yl)-1H-pyrazol-1-yl]azetidin-1-yl}cyclohexyl)oxy]-N-[(1R)-2-hydroxy-1-methylethyl]-6-(trifluoromethyl)isonicotinamide bis(trifluoroacetate)]	< 10	≧10
N#CCC1(n2cc(-c3ncnc4[nH]ccc34)cn2)CN([C@H]2CC[C@@H](Oc3cc(C(=O)NC4CC4)cc(C(F)(F)F)n3)CC2)C1 [Example 86, 2-[(cis-4-{3-(cyanomethyl)-3-[4-(7H-pyrrolo[2,3-d]pyrimidin-4-yl)-1H-pyrazol-1-yl]azetidin-1-yl}cyclohexyl)oxy]-N-cyclopropyl-6-(trifluoromethyl)isonicotinamide bis(trifluoroacetate)]	< 10	≧10
CN(C(=O)c1cc(O[C@H]2CC[C@@H](N3CC(CC#N)(n4cc(-c5ncnc6[nH]ccc56)cn4)C3)CC2)nc(C(F)(F)F)c1)C1CC1 [Example 87, 2-[(cis-4-{3-(cyanomethyl)-3-[4-(7H-pyrrolo[2,3-d]pyrimidin-4-yl)-1H-pyrazol-1-yl]azetidin-1-yl}cyclohexyl)oxy]-N-cyclopropyl-N-methyl-6-(trifluoromethyl)isonicotinamide bis(trifluoroacetate)]	< 10	≧10
N#CCC1(n2cc(-c3ncnc4[nH]ccc34)cn2)CN([C@H]2CC[C@@H](Oc3cc(C(=O)N4CC(O)C4)cc(C(F)(F)F)n3)CC2)C1 [Example 89, {1-(cis-4-{[4-[(3-hydroxyazetidin-1-yl)carbonyl]-6-(trifluoromethyl)pyridin-2-yl]oxy}cyclohexyl)-3-[4-(7H-pyrrolo[2,3-d]pyrimidin-4-yl)-1H-pyrazol-1-yl]azetidin-3-yl}acetonitrile bis(trifluoroacetate)]	< 10	≧10
N#CCC1(n2cc(-c3ncnc4[nH]ccc34)cn2)CN([C@H]2CC[C@@H](Oc3cc(C(=O)NC4CCC4)cc(C(F)(F)F)n3)CC2)C1 [Example 90, 2-[(cis-4-{3-(cyanomethyl)-3-[4-(7H-pyrrolo[2,3-d]pyrimidin-4-yl)-1H-pyrazol-1-yl]azetidin-1-yl}cyclohexyl)oxy]-N-cyclobutyl-6-(trifluoromethyl)isonicotinamide bis(trifluoroacetate)]	< 10	≧10
N#CCC1(n2cc(-c3ncnc4[nH]ccc34)cn2)CN([C@H]2CC[C@@H](Oc3cc(C(=O)N4CC(C#N)C4)cc(C(F)(F)F)n3)CC2)C1 [Example 91, 1-[2-[(cis-4-{3-(cyanomethyl)-3-[4-(7H-pyrrolo[2,3-d]pyrimidin-4-yl)-1H-pyrazol-1-yl]azetidin-1-yl}cyclohexyl)oxy]-6-(trifluoromethyl)isonicotinoyl]azetidine-3-carbonitrile bis(trifluoroacetate)]	< 10	≧10
N#CCC1(n2cc(-c3ncnc4[nH]ccc34)cn2)CN([C@H]2CC[C@@H](Oc3cc(CN4CCOCC4)cc(C(F)(F)F)n3)CC2)C1 [Example 92, {1-(cis-4-{[4-(morpholin-4-ylmethyl)-6-(trifluoromethyl)pyridin-2-yl]oxy}cyclohexyl)-3-[4-(7H-pyrrolo[2,3-d]pyrimidin-4-yl)-1H-pyrazol-1-yl]azetidin-3-yl}acetonitrile tris(trifluoroacetate)]	< 10	≧10
N#CCC1(n2cc(-c3ncnc4[nH]ccc34)cn2)CN([C@H]2CC[C@@H](Oc3cc(CN4CC[C@@H](O)C4)cc(C(F)(F)F)n3)CC2)C1 [Example 95, {1-(cis-4-{[4-{[(3R)-3-hydroxypyrrolidin-1-yl]methyl}-6-(trifluoromethyl)pyridin-2-yl]oxy}cyclohexyl)-3-[4-(7H-pyrrolo[2,3-d]pyrimidin-4-yl)-1H-pyrazol-1-yl]azetidin-3-yl}acetonitrile pentakis(trifluoroacetate)]	< 10	≧10
N#CCC1(n2cc(-c3ncnc4[nH]ccc34)cn2)CN([C@H]2CC[C@@H](Oc3cc(CN4CC[C@H](O)C4)cc(C(F)(F)F)n3)CC2)C1 [Example 96, {1-(cis-4-{[4-{[(3S)-3-hydroxypyrrolidin-1-yl]methyl}-6-(trifluoromethyl)pyridin-2-yl]oxy}cyclohexyl)-3-[4-(7H-pyrrolo[2,3-d]pyrimidin-4-yl)-1H-pyrazol-1-yl]azetidin-3-yl}acetonitrile tris(trifluoroacetate)]	< 10	≧10
CC1(NCc2cc(O[C@H]3CC[C@@H](N4CC(CC#N)(n5cc(-c6ncnc7[nH]ccc67)cn5)C4)CC3)nc(C(F)(F)F)c2)COC1 [Example 98, {1-(cis-4-{[4-{[(3-methyloxetan-3-yl)amino]methyl}-6-(trifluoromethyl)pyridin-2-yl]oxy}cyclohexyl)-3-[4-(7H-pyrrolo[2,3-d]pyrimidin-4-yl)-1H-pyrazol-1-yl]azetidin-3-yl}acetonitrile tetrakis(trifluoroacetate)]	< 10	≧10
N#CCC1(n2cc(-c3ncnc4[nH]ccc34)cn2)CN([C@H]2CC[C@@H](Oc3cc(Cn4ccnc4)cc(C(F)(F)F)n3)CC2)C1 [Example 99, {1-(cis-4-{[4-(1H-imidazol-1-ylmethyl)-6-(trifluoromethyl)pyridin-2-yl]oxy}cyclohexyl)-3-[4-(7H-pyrrolo[2,3-d]pyrimidin-4-yl)-1H-pyrazol-1-yl]azetidin-3-yl}acetonitrile tetrakis(trifluoroacetate)]	< 10	≧10
N#CCC1(n2cc(-c3ncnc4[nH]ccc34)cn2)CN([C@H]2CC[C@@H](Oc3cc(Cn4cccn4)cc(C(F)(F)F)n3)CC2)C1 [Example 100, {1-(cis-4-{[4-(1H-pyrazol-1-ylmethyl)-6-(trifluoromethyl)pyridin-2-yl]oxy}cyclohexyl)-3-[4-(7H-pyrrolo[2,3-d]pyrimidin-4-yl)-1H-pyrazol-1-yl]azetidin-3-yl}acetonitrile tris(trifluoroacetate)]	< 10	≧10
